Starred links: 1 amine or outer side, 2 acyl side, 3 side chain; linkers in the order of their positions; H or OH if unused. Non-standard residues stand in square brackets, D forms with d. Residues, ends and D or L forms follow the SMILES beside them. *: point of attachment. Dolaproine = CO[C@@H]([C@@H]1CCCN1)[C@@H](C)C(=O)O; Hexanoyl(6-maleimido) = O=C1C=CC(=O)N1CCCCCC(=O)*; Dil = CC[C@H](C)[C@H](NC)[C@@H](CC(=O)O)OC; PABC = O=C(OCc1ccc(N[*:1])cc1)[*:2]; X1 = C[C@@H](N*)[C@@H](O)c1ccccc1; Cit = NC(=O)NCCC[C@H](N)C(=O)O; NMeV = CN[C@H](C(=O)O)C(C)C
Columns and labels:
Type in all cases: cell-based
Conditions in all cases: five days, read-out: EC50 (free linker-drug, without antibody)
[1] = system: In vivo-derived resistant UACC-257X2.2 cells; test: In vitro cell proliferation (CellTiter-Glo), in vivo-derived resistant cells
Experimental: Tumor #359 was harvested and the cells were dissociated for growth in vitro (referred to herein as in vivo-derived resistant UACC-257X2.2 cells).
(§1) In vivo- and in vitro-derived resistant UACC-257X2.2 cells were then assayed for sensitivity to increasing concentrations of anti-ETBR-vc-MMAE.
(§2) In vitro cell proliferation of the cell lines in the presence of the immunoconjugates was assessed. Cells were plated at 1,500 cells per well in 50 μL of normal growth medium in 96-well clear-bottom plates. Twenty-four hours later, an additional 50 μL of culture medium with serial dilutions of immunoconjugates (ch5E9-vc-MMAE or control anti-gD-vc-MMAE) were added to triplicate wells. Five days later, cell survival was determined using CellTiter-Glo Luminescent Cell Viability Reagent (G7572, Promega Corporation, Madison, Wis.) using an EnVision 2101 Mutilabel Reader (Perkin-Elmer, Waltham, Mass.).

[2] = system: In vitro-derived resistant UACC-257X2.2 cells; test: In vitro cell proliferation (CellTiter-Glo), in vitro-derived resistant cells
Experimental: For resistance developed in vitro, UACC-257X2.2 cells were adapted to increasing concentrations of anti-ETBR-vc-MMAE in culture dishes over the course of two months.
as §1, §2

[3] = system: Parental UACC-257X2.2 cells; test: In vitro cell proliferation (CellTiter-Glo), parental cells
Experimental: as §2

CC[C@H](C)[C@@H]([C@@H](CC(=O)N1CCC[C@H]1[C@H](OC)[C@@H](C)C(=O)N[C@H](C)[C@@H](O)c1ccccc1)OC)N(C)C(=O)[C@@H](NC(=O)[C@H](C(C)C)N(C)C(=O)OCc1ccc(NC(=O)[C@H](CCCNC(N)=O)NC(=O)[C@@H](NC(=O)CCCCCN2C(=O)C=CC2=O)C(C)C)cc1)C(C)C [MC-vc-PAB-MMAE] ({Hexanoyl(6-maleimido)}-V[Cit][PABC][NMeV]V[Dil][Dolaproine]-X1)
EC50 [1]: 0.77 nM
EC50 [2]: 3.5 nM
EC50 [3]: 0.28 nM

Reference: patent US9463251B2, “Anti-ETBR antibodies and immunoconjugates” (Genentech, Inc., priority 2012, dated 2016)
